According to patent publication US12522596B2, “Compounds as GLP-1R agonists” (Terns Pharmaceuticals, Inc., priority 2021, dated 2026):

What was measured:
[1] = molecular target: T1, human GLP-1R receptor (Homo sapiens, UniProt P43220); assay: GLP-1R low expression cell assay (cAMP TR-FRET, CHO-K1_hGLP-1Rlow_clone10); format: cell-based; conditions: CHO-K1_hGLP-1Rlow_clone10 cells
T1 construct: expressed in transfected cells
Method: Stable cell lines expressing high and low GLP-1R surface expression were generated in CHO-K1 cells transfected (Fugene 6) with a puromycin selectable DNA plasmid encoding human GLP-1R receptor (accession number: NM_002062.5) under control of an EF1A promoter. Transfected cells were seeded into 24-well plates (9,000 cells/well) containing complete medium and incubated in a humidified incubator at 37° C. with 5% carbon dioxide. After overnight incubation, medium was replaced with complete medium supplemented with puromycin (6 μg/mL) and refreshed every 2-3 days to select for stably transfected cells. Individual pools of selected cells were expanded prior to analysis for responsiveness to GLP-1 control peptide using a TR-FRET assay to detect cAMP (LANCE Ultra CAMP Assay, Perkin Elmer). Briefly, cells were collected in Versene solution, plated in 384-well plates (1,000 cells/well) and combined with serially diluted GLP-1R control peptide (10 nL) using an acoustic dispenser (ECHO). Plates were incubated for 30 minutes at 25° C. prior to the addition of EU-CAMP tracer (5 μL) and Ulight-anti-cAMP (5 μL) reagents to each well, followed by 15 minutes incubation at 25° C. TR-FRET signal was detected using an En Vision Multimode Plate Reader (excitation=320 nm; emission=615 and 655 nm). Dose-response curves were used to generate EC50 values as a measure of responsiveness to the GLP-1R control peptide. Selected cell lines were monitored for responsiveness over multiple passages to ensure stability. […] Briefly, GLP-1R expression was analyzed by flow cytometry using a fluorescein-labeled Exendin-4 peptide fluorescent probe (FLEX). Cells were harvested in Versene solution and washed 3-times with PBS+0.5% BSA before incubation with FLEX reagent (10 μM) for 2 hours at room temperature. After incubation, cells were washed 3-times in PBS+0.5% BSA before final resuspension in PBS prior to analysis by flow cytometry to measure FLEX mean fluorescence intensity (MFI) as a measure of GLP-1R expression on the cell surface.
For compound testing in the CHO-K1_hGLP-1Rlow_clone10 cell line, cells were seeded in 384-well plates (1,000 cells/well). Test compounds were serially diluted in DMSO (10-point, 3-fold dilution), added to wells using an ECHO dispenser (10 nL/well) and plates were centrifuged for 1 min and agitated for 2 min at room temperature prior to 30-minute incubation at 25° C. After incubation, Eu-CAMP (5 μL) and Ulight-anti-cAMP (5 μL) reagents were added to each well, followed by centrifugation for 1 minute, agitation for 2 minutes at room temperature, and final incubation of the plates at 25° C. for 15 minutes. Plates were read using an EnVision microplate reader (excitation=320 nm; emission=615 and 655 nm). Dose-response curves were generated from duplicate wells based on percent activation calculated relative to a control GLP-1 peptide agonist that was run in parallel. EC50 values were determined by fitting percent activation as a function of compound concentration using the Hill equation (XLfit).
Stable cell lines expressing high and low GLP-1R surface expression were generated in CHO-K1 cells transfected (Fugene 6) with a puromycin selectable DNA plasmid encoding human GLP-1R receptor (accession number: NM_002062.5) under control of an EF1A promoter. Transfected cells were seeded into 24-well plates (9,000 cells/well) containing complete medium and incubated in a humidified incubator at 37° C. with 5% carbon dioxide. After overnight incubation, medium was replaced with complete medium supplemented with puromycin (6 μg/mL) and refreshed every 2-3 days to select for stably transfected cells. Individual pools of selected cells were expanded prior to analysis for responsiveness to GLP-1 control peptide using a TR-FRET assay to detect cAMP (LANCE Ultra CAMP Assay, Perkin Elmer).

[2] = Metabolic stability in human hepatocytes; format: in vitro ADME; conditions: cryopreserved hepatocytes; human hepatocytes, 1 μM
Method: (§1) Test compounds were incubated in rat and human hepatocytes and stability was assessed from the substrate […] approach. Test compounds were dissolved in dimethyl sulfoxide (DMSO) to create a 10 mM Stock, and then further diluted to create a 1000× Working Stock of 1 mM with DMSO in 96-well plates for test compounds and the positive control (midazolam). Vials containing cryopreserved hepatocytes were removed from the liquid nitrogen tank and immediately immersed in a 37° C. water bath. The vials were shaken gently until the contents had thawed and were then immediately emptied into 48 mL of pre-warmed HT Medium in a 50 mL conical tube. Cells remaining in the vial were resuspended with 1.0 mL of pre-warmed HT Medium and added to the conical tube. The tube was capped and then gently inverted several times to resuspend the hepatocytes. The cell suspension was centrifuged at 50×g at room temperature for 5 minutes and the supernatant discarded. The cell pellet was loosened by gently swirling the centrifuge tube and was re-suspended in 4 mL of warm Dulbecco's Modified Eagle medium (DMEM). Cell density was determined by a cell counter by Nexcelom, and DMEM medium was added to obtain a target density of 1×10^6 cells/mL. The assay was carried out in 96-well microtiter plates. Test Compounds were incubated at 1 μM with 1×10^6 cells/mL hepatocytes in DMEM for 0, 30, 60, 120 and 240 minutes. The incubation was carried out with gentle shaking at 37° C. under a humid atmosphere of 95% air/5% CO2. The volume of the incubation mixture was 37 μL with a final 0.1% DMSO. At each of the time points, the incubation was stopped by adding 150 μL quenching solution (100% acetonitrile, 0.1% formic acid containing bucetin as an internal standard for positive ESI mode). Subsequently, the mixtures were vortexed for 20 min and centrifuged at 4,000 RPM at 10° C. The supernatant (80 μL) was transferred to a clean 96-well plate and analyzed by LC-MS/MS. Midazolam at 1 μM with a final 0.1% DMSO was included as a positive control to verify assay performance. The percent parent remaining, intrinsic and predicted hepatic clearance and t1/2 were calculated. All samples were analyzed by LC-MS/MS using an AB Sciex API 4000 instrument, coupled to a Shimadzu LC-20AD LC Pump system. Separation was achieved using a Waters Atlantis T3 dC18 reverse phase HPLC column (20 mm×2.1 mm) at a flow rate of 0.5 mL/min. The mobile phase consisted of 0.1% formic acid in water (solvent A) and 0.1% formic acid in 100% acetonitrile (solvent B). Elution conditions are detailed below.
(§2) The ion optics of each test compound were optimized for their declustering potential (DP), […] (CE), collision-cell exit potential (CXP) and used in a selected ion monitoring experiment in the positive ion mode. The peak area ratio of each test compound to internal standard was then evaluated for stability. The extent of metabolism was calculated based on the disappearance of the test compound, compared to its initial concentration. The initial rates of clearance of the test compound were calculated using the linear regression plot of semi-log % remaining of the compound versus time. The elimination rate constant (k) of the linear regression plot was then used to determine t1/2 and the intrinsic clearance (CLint) using the following formula, where Chepatocyte (million cells/mL) is the cell density of the incubation:
(§3) The predicted hepatic clearance (CLhep) was calculated using the well stirred method with the following formula with CLint(in vivo) normalized based on liver weight: […]
(§4) The relevant physiological parameters of liver weight, blood flow, and hepatocellularity for various species are listed below: […]

[3] = Metabolic stability in rat hepatocytes; format: in vitro ADME; conditions: cryopreserved hepatocytes, 1 μM
Method: as §1, §2, §3, §4

[4] = system: rat hepatocytes; assay: Metabolic stability in rat hepatocytes; format: in vitro ADME
Method: as §1, §2, §3, §4

[5] = Rat pharmacokinetics, oral dosing; format: in vivo, Sprague-Dawley rats; conditions: for AUC(0-t) / Cmax / half-life: male, Sprague-Dawley, rat plasma
Method: Oral dosing: Compounds were formulated at 0.3 mg/mL or 0.6 mg/mL in a solution comprising 5% polyethylene glycol 400 and 95% (12% (w/v) sulfobutyl-β-cyclodextrin in water) (v/v). Formulated compounds were administered to male, 7-11 week old Sprague-Dawley rats by oral gavage at a dose of 3 mg/kg.
Sample collection: Blood collections of about 0.2 mL per time point were performed from jugular vein or other suitable site of each animal, into pre-chilled commercial EDTA-K2 tubes and placed on wet ice until centrifugation. Blood samples were processed for plasma by centrifugation at approximately 4° C., 3,200 g for 10 min. Plasma was collected and transferred into pre-labeled 96 well plate or polypropylene tubes, quick frozen over dry ice and kept at −60° C. or lower until LC-MS/MS analysis.
Data analysis: Plasma concentration versus time data was plotted in graph and analyzed by non-compartmental approaches using the Phoenix WinNonlin 6.3 software program. Related PK parameters were calculated according to dosing route, e.g., CL, Vdss and C0 for intravenous administration, Cmax, Tmax or % F for extravascular administration, and T1/2, AUC(0-t), AUC(0-inf), MRT(0-t), MRT(0-inf) for all routes.

[6] = rat, plasma, po, 3 mg/kg, 3 mg/kg PO (0.3 mg/mL)

T1 sequence (P43220 24-463): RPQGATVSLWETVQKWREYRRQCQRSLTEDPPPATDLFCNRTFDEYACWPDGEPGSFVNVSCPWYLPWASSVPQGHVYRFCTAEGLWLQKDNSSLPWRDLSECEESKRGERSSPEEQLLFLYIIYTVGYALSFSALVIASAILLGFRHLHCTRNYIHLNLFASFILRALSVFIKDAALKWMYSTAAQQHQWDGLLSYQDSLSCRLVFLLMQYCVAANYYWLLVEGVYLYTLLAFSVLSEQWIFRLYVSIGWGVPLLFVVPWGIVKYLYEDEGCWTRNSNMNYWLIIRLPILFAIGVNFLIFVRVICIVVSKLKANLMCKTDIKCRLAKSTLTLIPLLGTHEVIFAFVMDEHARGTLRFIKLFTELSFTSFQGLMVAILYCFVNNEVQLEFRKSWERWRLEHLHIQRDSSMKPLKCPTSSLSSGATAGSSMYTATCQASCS

O=C(O)c1ccc2nc(CN3CC[C@]4(c5nccc(OCc6ccc(Cl)cc6F)n5)C[C@@H]4C3)n(Cc3cncs3)c2c1 [Compound 21]
EC50 [1]: 6.6 nM

Cc1ncsc1Cn1c(CN2CCC3(c4cccc(OCc5ccc(C#N)cc5F)n4)CC3C2)nc2ccc(C(=O)O)cc21 (stereo not shown) [Compound 12]
EC50 [1]: 232 nM | CLint scaled at 1 μM [2]: 26.8 ± 0.8 mL/min/kg | half-life at 1 μM [2]: 1.49 ± 0.0445 h | CLint scaled at 1 μM [3]: 91.7 ± 1.76 mL/min/kg | half-life at 1 μM [3]: 0.604 ± 0.0117 h | CLint relative to reference standard [4]: significantly increased | Half-life relative to reference [4]: significantly lower

[2H]C([2H])(Oc1cccc(C2CCN(Cc3nc4ccc(C(=O)O)cc4n3Cc3cncs3)CC2)n1)c1ccc(Cl)cc1F [Compound 26]
EC50 [1]: 4 nM | CLint scaled at 1 μM [2]: 20.9 ± 0.98 mL/min/kg | half-life at 1 μM [2]: 1.92 ± 0.0905 h | CLint scaled at 1 μM [3]: 24.1 ± 0.83 mL/min/kg | half-life at 1 μM [3]: 2.3 ± 0.0792 h | CLint relative to reference standard [4]: significantly lower | Half-life relative to reference [4]: significantly higher

CCc1scnc1Cn1c(CN2CCC(c3cccc(OCc4nc5c(F)cc(C#N)cc5s4)n3)CC2)nc2ccc(C(=O)O)cc21 [Compound 13]
EC50 [1]: 724 nM | Half-life relative to reference [4]: significantly lower

O=C(O)c1ccc2nc(CN3CC[C@@]4(c5nccc(OCc6ccc(Cl)cc6F)n5)C[C@H]4C3)n(Cc3cncs3)c2c1 [Compound 22]
EC50 [1]: 87.5 nM

N#Cc1cc(F)c2nc(COc3cccc(C4CCN(Cc5nc6ccc(C(=O)O)cc6n5Cc5cncs5)CC4)n3)sc2c1 [Compound 5]
EC50 [1]: 5.4 nM

N#Cc1ccc(COc2ccnc([C@]34CCN(Cc5nc6ccc(C(=O)O)cc6n5Cc5cncs5)C[C@H]3C4)n2)c(F)c1 [Compound 18]
EC50 [1]: 9.9 nM

CCc1ncsc1Cn1c(CN2CCC(c3cccc(OCc4nc5c(F)cc(C#N)cc5s4)n3)CC2)nc2ccc(C(=O)O)cc21 [Compound 8]
EC50 [1]: 360 nM

O=C(O)c1ccc2nc(CN3CCC(c4nccc(OCc5ccc(Cl)cc5F)n4)CC3)n(Cc3cncs3)c2c1 [Compound 23]
EC50 [1]: 3.3 nM | CLint scaled at 1 μM [2]: 42.3 ± 1.59 mL/min/kg | half-life at 1 μM [2]: 1.11 ± 0.0523 h | CLint scaled at 1 μM [3]: 57.9 ± 1.25 mL/min/kg | half-life at 1 μM [3]: 0.957 ± 0.0205 h | CLint relative to reference standard [4]: significantly increased | Half-life relative to reference [4]: significantly lower

O=C(O)c1ccc2nc(CN3CC[C@]4(c5cccc(OCc6ccc(Cl)cc6F)n5)C[C@@H]4C3)n(Cc3cncs3)c2c1 [Compound 24]
EC50 [1]: 15.1 nM

N#Cc1ccc(COc2ccnc([C@@]34CCN(Cc5nc6ccc(C(=O)O)cc6n5Cc5cncs5)C[C@@H]3C4)n2)c(F)c1 [Compound 19]
EC50 [1]: 161 nM

N#Cc1ccc(COc2cccc(C3CCN(Cc4nc5ccc(C(=O)O)cc5n4Cc4nccs4)CC3)n2)c(F)c1 [Compound 1]
EC50 [1]: 50.1 nM

N#Cc1cc(F)c2c(c1)CCN(c1cccc(C3CCN(Cc4nc5ccc(C(=O)O)cc5n4Cc4cncs4)CC3)n1)C2 [Compound 3]
EC50 [1]: 44.2 nM | AUC(0-t) [5, 6]: 116 ± 23.2 ng·h/mL | Cmax [5, 6]: 79.8 ± 24.4 ng/mL | half-life [5, 6]: 1.1 ± 0.29 h

N#Cc1cc(F)c2nc(COc3cccc(C4CCN(Cc5nc6ccc(C(=O)O)cc6n5Cc5ccns5)CC4)n3)sc2c1 [Compound 9]
EC50 [1]: 16.6 nM

Cc1scnc1Cn1c(CN2CCC(c3cccc(OCc4nc5c(F)cc(C#N)cc5s4)n3)CC2)nc2ccc(C(=O)O)cc21 [Compound 11]
EC50 [1]: 292 nM

C=Cc1ncsc1Cn1c(CN2CCC(c3cccc(OCc4nc5c(F)cc(C#N)cc5s4)n3)CC2)nc2ccc(C(=O)O)cc21 [Compound 7]
EC50 [1]: 90.6 nM

O=C(O)c1ccc2nc(CN3CC[C@@]4(c5cccc(OCc6ccc(Cl)cc6F)n5)C[C@H]4C3)n(Cc3cncs3)c2c1 [Compound 25]
EC50 [1]: 24.4 nM | Cmax ([5]; rat, plasma, po, 3 mg/kg, 3 mg/kg PO (0.6 mg/mL)): 412 ± 98.3 ng/mL | AUC(0-t) ([5]; 3 mg/kg PO (0.6 mg/mL)): 558 ± 100 ng·h/mL | half-life ([5]; 3 mg/kg PO (0.6 mg/mL)): 1.52 ± 0.21 h | PK properties relative to Reference Compound A ([5]; rat, dosed orally): similarly improved PK properties

COc1ccsc1Cn1c(CN2CCC(c3cccc(OCc4nc5c(F)cc(C#N)cc5s4)n3)CC2)nc2ccc(C(=O)O)cc21 [Compound 10]
EC50 [1]: 393 nM

N#Cc1cc(F)c2nc(COc3cccc(C4CCN(Cc5nc6ccc(C(=O)O)cc6n5Cc5scnc5Br)CC4)n3)sc2c1 [Compound 6]
EC50 [1]: 135 nM

N#Cc1ccc(COc2cccc(C3CCN(Cc4nc5ccc(C(=O)O)cc5n4Cc4scnc4Cl)CC3)n2)c(F)c1 [Compound 15]
EC50 [1]: 25.8 nM
